Laboratory results: patent publication US5466784A, “Monoclonal antibodies to salinomycin and method for detecting the same” (The United States of America as represented by the …, priority 1993, dated 1995)

Assays:
[1] = test system: the 16 anti-salinomycin monoclonal antibodies SAL02-SAL13 and SAL22-SAL25; test: Competitive inhibition ELISA, result stated for the antibodies as a group; format: binding, mouse
Description: (§1) The supernatant culture fluid from the cloned hybridomas may also be screened to select for those producing antibodies having a high affinity for salinomycin. Affinity my be measured using a variety of well known techniques, such as ELISA, RIA or equilibrium dialysis using labelled salinomycin. […] In accordance with this embodiment, the antibody containing supernatant is added to a salinomycin coated solid substrate such as the wells of an assay plate, together with a range of concentrations of free salinomycin as a competitor. Following incubation and washing, bound antibody in the wells is determined in the same manner as the db-ELISA. Percent inhibition may be calculated as (1-B/BO)×100 where B is the OD of a well with a competitor and BO is the mean OD of the wells without competitor (control). […] However, for even greater accuracy, the affinity may be alternatively measured at 50% inhibition (IC50).
(§2) For the competitive inhibition ELISA, the wells of a 96-well microtiter plate were coated with 250 ng SAL-BSA and blocked with ovalbumin as previously described. Two hundred μL of a competitor (free salinomycin at 20-100 ng/100 μL) in assay buffer, were added to row 2 of an antigen-coated well. The remaining wells in that row received 100 μL of assay buffer. A 100 μL aliquot of competitor was withdrawn from row 2 and serially diluted across the microtiter plate into wells 3-10. Wells 11 and 12 received no competitor. […] Plates were incubated for 1-h at 37° C. and processed as described above in the db ELISA. Percent inhibition was calculated by the following method: (1-B/B0)×100where B=the OD of a well with a competitor and B0 =mean ODs of the wells without competitor (i.e. wells 11 and 12).
(§3) Antibody Characterization. The 16 monoclonal antibodies were further evaluated for their ability to distinguish between commonly used ionophoric coccidiostats. The competitive inhibition ELISA described supra was repeated with the ionophores salinomycin (SAL), narasin (NAR), lasalocid (LAS) and monensin (MON) as competitors.

[2] = test system: anti-salinomycin monoclonal antibody SAL24 (IgG2a, kappa); test: Competitive inhibition ELISA (SAL-BSA coated wells); format: binding, mouse; details: mean ± SD, n = 10 assays
Description: as §1, §2, §3

[3] = test system: anti-salinomycin monoclonal antibody SAL23 (IgG2a, kappa); test: as above; format: binding, mouse; details: mean ± SD, n = 10 assays
Description: as §1, §2, §3

[4] = test system: anti-salinomycin monoclonal antibody SAL10 (IgG2a, kappa); test: as above; format: binding, mouse; details: for Mean 50% Inhibition Value (IC50) of competitor: mean ± SD, n = 10 assays
Description: as §1, §2, §3

[5] = test system: anti-salinomycin monoclonal antibody SAL22 (IgG2a, kappa); test: as above; format: binding, mouse; details: mean ± SD, n = 10 assays
Description: as §1, §2, §3

[6] = test system: anti-salinomycin monoclonal antibody SAL06 (IgG2a, kappa); test: as above; format: binding, mouse; details: mean ± SD, n = 10 assays
Description: as §1, §2, §3

[7] = test system: anti-salinomycin monoclonal antibody SAL03 (IgG2a, kappa); test: as above; format: binding, mouse; details: mean ± SD, n = 10 assays
Description: as §1, §2, §3

[8] = test system: anti-salinomycin monoclonal antibody SAL11 (IgG2a, kappa); test: as above; format: binding, mouse; details: mean ± SD, n = 10 assays
Description: as §1, §2, §3

[9] = test system: anti-salinomycin monoclonal antibody SAL25 (IgG2a, kappa); test: as above; format: binding, mouse; details: mean ± SD, n = 10 assays
Description: as §1, §2, §3

[10] = test system: anti-salinomycin monoclonal antibody SAL09 (IgG2a, kappa); test: as above; format: binding, mouse; details: mean ± SD, n = 10 assays
Description: as §1, §2, §3

[11] = test system: anti-salinomycin monoclonal antibody SAL02 (IgG2a, kappa; hybridoma ATCC HB 11954); test: as above; format: binding, mouse; details: mean ± SD, n = 10 assays
Description: as §1, §2, §3

[12] = test system: anti-salinomycin monoclonal antibody SAL12 (IgG2a, kappa); test: as above; format: binding, mouse; details: mean ± SD, n = 10 assays
Description: as §1, §2, §3

[13] = test system: anti-salinomycin monoclonal antibody SAL13 (IgG2a, kappa); test: as above; format: binding, mouse; details: mean ± SD, n = 10 assays
Description: as §1, §2, §3

[14] = test system: anti-salinomycin monoclonal antibody SAL05 (IgG2a, kappa); test: as above; format: binding, mouse; details: for Mean 50% Inhibition Value (IC50) of competitor: mean ± SD, n = 10 assays
Description: as §1, §2, §3

[15] = test system: anti-salinomycin monoclonal antibody SAL04 (IgG2a, kappa); test: as above; format: binding, mouse; details: mean ± SD, n = 10 assays
Description: as §1, §2, §3

[16] = test system: anti-salinomycin monoclonal antibody SAL08 (IgG2a, kappa); test: as above; format: binding, mouse; details: mean ± SD, n = 10 assays
Description: as §1, §2, §3

[17] = test system: anti-salinomycin monoclonal antibody SAL07 (IgG2a, kappa); test: as above; format: binding, mouse; details: mean ± SD, n = 10 assays
Description: as §1, §2, §3

[18] = test system: monoclonal antibodies to salinomycin of Miller et al. (immunogen linked through succinate at C-20); details: prior art antibodies; cited from earlier work
[19] = at or below 100 ng/well (10 ppm), Table I footnote
[20] = at or below 1000 ng/well, all 16 antibodies

SMILES: CC[C@@H](C(=O)[C@@H](C)[C@@H](O)[C@H](C)CCc1ccc(C)c(O)c1C(=O)O)[C@H]1O[C@](CC)([C@H]2CC[C@](O)(CC)[C@H](C)O2)C[C@@H]1C [lasalocid]
- inhibition of antigen-antibody binding by competitor [1, 19]: Neither Lasalocid or Monensin inhibited the antigenantibody binding
- inhibition of antigen-antibody binding by competitor [1, 20]: no inhibition of antigen-antibody binding

SMILES: CC[C@@]1([C@@H]2O[C@@H]([C@H]3O[C@@](O)(CO)[C@H](C)C[C@@H]3C)C[C@@H]2C)CC[C@H]([C@]2(C)CC[C@]3(C[C@H](O)[C@@H](C)[C@@H]([C@@H](C)[C@@H](OC)[C@H](C)C(=O)O)O3)O2)O1 [monensin]
- inhibition of antigen-antibody binding by competitor [1, 19]: Neither Lasalocid or Monensin inhibited the antigenantibody binding
- inhibition of antigen-antibody binding by competitor [1, 20]: no inhibition of antigen-antibody binding

SMILES: CC[C@@H](C(=O)O)[C@@H]1O[C@@H]([C@@H](C)[C@H](O)[C@H](C)C(=O)[C@H](CC)[C@H]2O[C@]3(C=C[C@@H](O)[C@]4(CC[C@@](C)([C@H]5CC[C@](O)(CC)[C@H](C)O5)O4)O3)[C@H](C)C[C@@H]2C)[C@@H](C)C[C@@H]1C [narasin]
- Mean 50% Inhibition Value (IC50) of competitor [2]: 0.98 ± 0.46 ng/well
- Mean 50% Inhibition Value (IC50) of competitor [3]: 0.99 ± 0.25 ng/well
- Mean 50% Inhibition Value (IC50) of competitor [4]: 1.18 ± 0.49 ng/well
- Mean 50% Inhibition Value (IC50) of competitor [5]: 0.51 ± 0.09 ng/well
- Mean 50% Inhibition Value (IC50) of competitor [6]: 0.39 ± 0.15 ng/well
- Mean 50% Inhibition Value (IC50) of competitor [7]: 0.82 ± 0.58 ng/well
- Mean 50% Inhibition Value (IC50) of competitor [8]: 0.69 ± 0.28 ng/well
- Mean 50% Inhibition Value (IC50) of competitor [9]: 0.68 ± 0.34 ng/well
- Mean 50% Inhibition Value (IC50) of competitor [10]: 1.17 ± 0.27 ng/well
- Mean 50% Inhibition Value (IC50) of competitor [11]: 0.97 ± 0.97 ng/well
- Mean 50% Inhibition Value (IC50) of competitor [12]: 0.67 ± 0.19 ng/well
- Mean 50% Inhibition Value (IC50) of competitor [13]: 0.55 ± 0.20 ng/well
- Mean 50% Inhibition Value (IC50) of competitor [14]: 0.52 ± 0.62 ng/well
- Mean 50% Inhibition Value (IC50) of competitor [15]: 0.34 ± 0.15 ng/well
- Mean 50% Inhibition Value (IC50) of competitor [16]: 1.09 ± 0.15 ng/well
- Mean 50% Inhibition Value (IC50) of competitor [17]: 0.93 ± 0.85 ng/well

SMILES: CC[C@@H](C(=O)[C@@H](C)[C@@H](O)[C@H](C)[C@@H]1O[C@@H]([C@@H](CC)C(=O)O)CC[C@@H]1C)[C@H]1O[C@]2(C=C[C@@H](O)[C@]3(CC[C@@](C)([C@H]4CC[C@](O)(CC)[C@H](C)O4)O3)O2)[C@H](C)C[C@@H]1C [salinomycin]
- detection limit (reported) [18]: 50 ng
- sensitivity (reported) [18]: 50 ng per well
- Mean 50% Inhibition Value (IC50) of competitor [2]: 1.15 ± 0.45 ng/well
- Mean 50% Inhibition Value (IC50) of competitor [3]: 0.92 ± 0.15 ng/well
- concentration that resulted in 20% inhibition (IC20) of control activity ([4]; free salinomycin as competitor): 0.793 ng
- concentration that resulted in 50% inhibition IC50 ([4]; free salinomycin as competitor): 1.76 ng
- Mean 50% Inhibition Value (IC50) of competitor [4]: 1.76 ± 0.29 ng/well
- Mean 50% Inhibition Value (IC50) of competitor [5]: 0.56 ± 0.23 ng/well
- Mean 50% Inhibition Value (IC50) of competitor [6]: 0.78 ± 0.62 ng/well
- Mean 50% Inhibition Value (IC50) of competitor [7]: 0.78 ± 0.72 ng/well
- Mean 50% Inhibition Value (IC50) of competitor [8]: 0.57 ± 0.25 ng/well
- Mean 50% Inhibition Value (IC50) of competitor [9]: 0.61 ± 0.18 ng/well
- Mean 50% Inhibition Value (IC50) of competitor [10]: 0.97 ± 0.28 ng/well
- Mean 50% Inhibition Value (IC50) of competitor [11]: 0.62 ± 0.11 ng/well
- Mean 50% Inhibition Value (IC50) of competitor [12]: 0.49 ± 0.28 ng/well
- Mean 50% Inhibition Value (IC50) of competitor [13]: 0.75 ± 0.49 ng/well
- concentration that resulted in 20% inhibition (IC20) of control activity ([14]; free salinomycin as competitor): 0.174 ng
- concentration that resulted in 50% inhibition IC50 ([14]; free salinomycin as competitor): 0.33 ng
- Mean 50% Inhibition Value (IC50) of competitor [14]: 0.33 ± 0.10 ng/well
- Mean 50% Inhibition Value (IC50) of competitor [15]: 0.35 ± 0.17 ng/well
- Mean 50% Inhibition Value (IC50) of competitor [16]: 0.60 ± 0.30 ng/well
- Mean 50% Inhibition Value (IC50) of competitor [17]: 1.44 ± 1.28 ng/well
